According to patent US20190151340A1, “POLYMERIC NAN[…]” (priority 2017, published 2019):

Assays:
[1] = Comparative toxicity in wild-type mice (body weight, lethality); format: in vivo, CD1 wild type mice
Experimental: The effect of nanoparticles in mitigating the toxicity of bortezomib was examined in wild-type mice. Different doses of bortezomib alone (1.5, 3, 6, 9 and 12 mg/kg) or bortezomib-nanoparticles (NP) (0.9, 1.8, 3.6, 5.4 and 7.2 mg/kg) were injected into CD1 wild type. Three mice were used in each group of bortezomib alone and bortezomib-NP groups, body weights, food and water uptake were measured every day for 22 days.

[2] = test system: human tumor xenograft models; settings: Albanell and Adams 2002; cited from earlier work
[3] = test system: relapsed and refractory multiple myeloma; settings: Richardson et al. 2003, Phase 2; cited from earlier work

## CC(C)C[C@H](NC(=O)[C@H](Cc1ccccc1)NC(=O)c1cnccn1)B(O)O [bortezomib, N-2-pyrazinecarbonyl-L-phenylalanine-L-leucineboronic acid]
[1]; 6 mg/kg dose
  survival: two
[1]; 9 mg/kg dose
  survival: died after Day 1
[2]
  antitumor activity: significant antitumor activity
[3]
  effectiveness in patients: effectiveness in treating relapsed and refractory multiple myeloma
